According to US20050070510A1, “Substituted tetracycline compounds as synergistic antifungal agents” (Paratek Pharmaceuticals, Inc., priority 2001, published 2005):

The compounds below were run on COS-1 cells (assay: In vitro mammalian cytotoxicity assay (Resazurin)).

Structure (SMILES) | In Vitro Cytotoxicity
CCNC(=O)Nc1cc(N(C)C)c2c(c1O)C(=O)C1=C(O)[C@]3(C#N)C(=O)C(C(N)=O)=C(O)[C@@H](N(C)C)[C@]3(N)C[C@]1(N)C2 [KJ] | ** (toxicities less than 25 μg/mL are represented by **)
CN(C)c1cc(C#CCc2ccccc2)c(O)c2c1C[C@@]1(N)C[C@@]3(N)[C@H](N(C)C)C(O)=C(C(N)=O)C(=O)[C@@]3(C#N)C(O)=C1C2=O [KL] | ** (toxicities less than 25 μg/mL are represented by **)
CN(C)c1cc(CCC2CCCC2)c(O)c2c1C[C@@]1(N)C[C@@]3(N)[C@H](N(C)C)C(O)=C(C(N)=O)C(=O)[C@@]3(C#N)C(O)=C1C2=O [KM] | ** (toxicities less than 25 μg/mL are represented by **)
CN(C)c1cc(C#CC2=CCCC2)c(O)c2c1C[C@@]1(N)C[C@@]3(N)[C@H](N(C)C)C(O)=C(C(N)=O)C(=O)[C@@]3(C#N)C(O)=C1C2=O [KN] | ** (toxicities less than 25 μg/mL are represented by **)
CCCCCN(Cc1cccc(-c2ccc(O)c3c2C[C@@]2(N)C[C@@]4(N)[C@H](N(C)C)C(O)=C(C(N)=O)C(=O)[C@@]4(C#N)C(O)=C2C3=O)c1)P(=O)(OCC)OCC [KO] | * (toxicities greater than >25 μg/ml are represented by *)
CCOP(=O)(OCC)C(Nc1ccccc1)c1ccc(-c2cc(N(C)C)c3c(c2O)C(=O)C2=C(O)[C@]4(C#N)C(=O)C(C(N)=O)=C(O)[C@@H](N(C)C)[C@]4(N)C[C@]2(N)C3)cc1 (stereo partly drawn) [KP] | * (toxicities greater than >25 μg/ml are represented by *)
CC(C)COC(=O)Nc1cc(N(C)C)c2c(c1O)C(=O)C1=C(O)[C@]3(C#N)C(=O)C(C(N)=O)=C(O)[C@@H](N(C)C)[C@]3(N)C[C@]1(N)C2 [KQ] | ** (toxicities less than 25 μg/mL are represented by **)
CSc1ccc(OC(=O)Nc2cc(N(C)C)c3c(c2O)C(=O)C2=C(O)[C@]4(C#N)C(=O)C(C(N)=O)=C(O)[C@@H](N(C)C)[C@]4(N)C[C@]2(N)C3)cc1 [KR] | * (toxicities greater than >25 μg/ml are represented by *)
CN(C)[C@@H]1C(O)=C(C(N)=O)C(=O)[C@@]2(C#N)C(O)=C3C(=O)c4c(O)c(C(C)(C)C)cc(-c5cccc([N+](=O)O)c5)c4C[C@@]3(N)C[C@@]12N [KS] | ** (toxicities less than 25 μg/mL are represented by **)
CN(C)[C@@H]1C(O)=C(C(=O)CC(C)(C)C)C(=O)[C@@]2(C#N)C(O)=C3C(=O)c4c(O)c(C(C)(C)C)cc(-c5cccc([N+](=O)O)c5)c4C[C@@]3(N)C[C@@]12N [KT] | ** (toxicities less than 25 μg/mL are represented by **)
CN(C)CC(=O)Nc1ccc2c(c1O)C(=O)C1=C(O)[C@]3(C#N)C(=O)C(C(N)=O)=C(O)[C@@H](N(C)C)[C@]3(N)C[C@]1(N)C2 [KU] | * (toxicities greater than >25 μg/ml are represented by *)
CCCCc1cc(CN)c(O)c2c1C[C@@]1(N)C[C@@]3(N)[C@H](N(C)C)C(O)=C(C(N)=O)C(=O)[C@@]3(C#N)C(O)=C1C2=O [KV] | * (toxicities greater than >25 μg/ml are represented by *)
CCCCCc1cc(N(C)C)c2c(c1O)C(=O)C1=C(O)[C@]3(C#N)C(=O)C(C(N)=O)=C(O)[C@@H](N(C)C)[C@]3(N)C[C@]1(N)C2 [KW] | ** (toxicities less than 25 μg/mL are represented by **)
CCCC#Cc1cc(N(C)C)c2c(c1O)C(=O)C1=C(O)[C@]3(C#N)C(=O)C(C(N)=O)=C(O)[C@@H](N(C)C)[C@]3(N)C[C@]1(N)C2 [KX] | ** (toxicities less than 25 μg/mL are represented by **)
CCCCc1ccc(O)c2c1C[C@@]1(N)C[C@@]3(N)[C@H](N(C)C)C(O)=C(C(N)=O)C(=O)[C@@]3(C#N)C(O)=C1C2=O [KY] | ** (toxicities less than 25 μg/mL are represented by **)
CN(C)[C@@H]1C(O)=C(C(N)=O)C(=O)[C@@]2(C#N)C(O)=C3C(=O)c4c(O)c(C(=O)NCC5CCCO5)cc(-c5ccc(F)cc5)c4C[C@@]3(N)C[C@@]12N (stereo partly drawn) [KZ] | * (toxicities greater than >25 μg/ml are represented by *)
CCCCCc1cc(CC2C(=O)c3ccccc3C2=O)c(O)c2c1C[C@@]1(N)C[C@@]3(N)[C@H](N(C)C)C(O)=C(C(N)=O)C(=O)[C@@]3(C#N)C(O)=C1C2=O [LA] | ** (toxicities less than 25 μg/mL are represented by **)
CCCCC#Cc1cc(N(C)C)c2c(c1O)C(=O)C1=C(O)[C@]3(C#N)C(=O)C(C(N)=O)=C(O)[C@@H](N(C)C)[C@]3(N)C[C@]1(N)C2 [LB] | ** (toxicities less than 25 μg/mL are represented by **)
CN(C)c1cc(NC(=O)CNC(C)(C)C)c(O)c2c1C[C@@]1(N)C[C@@]3(N)[C@H](N(C)C)C(O)=C(C(N)=O)C(=O)[C@@]3(C#N)C(O)=C1C2=O [LC] | * (toxicities greater than >25 μg/ml are represented by *)
CCc1cc(C(C)(C)C)c(O)c2c1C[C@@]1(N)C[C@@]3(N)[C@H](N(C)C)C(O)=C(C(=O)NC(C)(C)C)C(=O)[C@@]3(C#N)C(O)=C1C2=O [LE] | ** (toxicities less than 25 μg/mL are represented by **)
CCc1cc(CC)c2c(c1O)C(=O)C1=C(O)[C@]3(C#N)C(=O)C(C(N)=O)=C(O)[C@@H](N(C)C)[C@]3(N)C[C@]1(N)C2 [LF] | ** (toxicities less than 25 μg/mL are represented by **)
CN(C)CC(=O)NCc1cc(N(C)C)c2c(c1O)C(=O)C1=C(O)[C@]3(C#N)C(=O)C(C(N)=O)=C(O)[C@@H](N(C)C)[C@]3(N)C[C@]1(N)C2 [LG] | ** (toxicities less than 25 μg/mL are represented by **)
CCc1cc(C#Cc2ccc(OC)cc2)c(O)c2c1C[C@@]1(N)C[C@@]3(N)[C@H](N(C)C)C(O)=C(C(N)=O)C(=O)[C@@]3(C#N)C(O)=C1C2=O [LH] | ** (toxicities less than 25 μg/mL are represented by **)
CCC(=O)c1ccc(O)c2c1C[C@@]1(N)C[C@@]3(N)[C@H](N(C)C)C(O)=C(C(N)=O)C(=O)[C@@]3(C#N)C(O)=C1C2=O [LI] | ** (toxicities less than 25 μg/mL are represented by **)
CC(=O)NCc1cc(-c2ccccc2)c2c(c1O)C(=O)C1=C(O)[C@]3(C#N)C(=O)C(C(N)=O)=C(O)[C@@H](N(C)C)[C@]3(N)C[C@]1(N)C2 [LJ] | * (toxicities greater than >25 μg/ml are represented by *)
CN(C)[C@@H]1C(O)=C(C(N)=O)C(=O)[C@@]2(C#N)C(O)=C3C(=O)c4c(O)ccc(-c5ccccc5)c4C[C@@]3(N)C[C@@]12N [LK] | ** (toxicities less than 25 μg/mL are represented by **)
CC(=O)c1cc(C(C)=O)c2c(c1O)C(=O)C1=C(O)[C@]3(C#N)C(=O)C(C(N)=O)=C(O)[C@@H](N(C)C)[C@]3(N)C[C@]1(N)C2 [LL] | * (toxicities greater than >25 μg/ml are represented by *)
CCOC(=O)CNC(=O)c1cccc(-c2cc(N(C)C)c3c(c2O)C(=O)C2=C(O)[C@]4(C#N)C(=O)C(C(N)=O)=C(O)[C@@H](N(C)C)[C@]4(N)C[C@]2(N)C3)c1 [LM] | ** (toxicities less than 25 μg/mL are represented by **)
CN(C)c1cc(NCCc2ccccc2)c(O)c2c1C[C@@]1(N)C[C@@]3(N)[C@H](N(C)C)C(O)=C(C(N)=O)C(=O)[C@@]3(C#N)C(O)=C1C2=O [LN] | ** (toxicities less than 25 μg/mL are represented by **)
CN(C)c1cc(NCc2ccccc2)c(O)c2c1C[C@@]1(N)C[C@@]3(N)[C@H](N(C)C)C(O)=C(C(N)=O)C(=O)[C@@]3(C#N)C(O)=C1C2=O [LO] | ** (toxicities less than 25 μg/mL are represented by **)
